# Source: patent publication US4492693A, “Benzothienylglycyl cephalosporin derivatives” (priority 1983, dated 1985)
# Read-outs that look alike come from different tables or passages of the source.
# What was measured:
# Type in all cases: cell-based
# [1] = tested on: Strep. D; test: Agar Dilution MIC (Table I); conditions: read-out: Agar Dilution MIC
# Excerpt: (§1) A typical and preferred compound provided by this invention is 7-(3-benzothienyl)glycylamido-3-methyl-3-cephem-4-carboxylic acid, the compound illustrated in Example 9. The antibacterial activity of this compound has been determined in standard in vitro agar dilution assays against a variety of gram positive and gram negative microorganism. The following Tables present typical minimum inhibitory concentrations (MIC's) in μg/ml for several compounds of the invention when evaluated against the indicated microorganisms. MIC's for several known compounds are also presented for comparison.
# Agar Dilution MIC (μg/ml)
# [2] = tested on: Staph. aureus; test: Expanded Spectrum MIC (Table II); conditions: Staphylococcus aureus
# Excerpt: as §1
# (§2) Expanded Spectrum MIC (μg/ml)
# [3] = tested on: H. influenzae; test: Expanded Spectrum MIC (Table II); conditions: Haemophilus influenzae
# Excerpt: as §1, §2
# [4] = tested on: E. coli; test: Agar Dilution MIC (Table I); conditions: Escherichia coli
# [5] = tested on: Strep. PN; test: Agar Dilution MIC (Table I); conditions: strain PARK
# [6] = tested on: Strep. A; test: Agar Dilution MIC (Table I); conditions: strain C203; read-out: Agar Dilution MIC
# [7] = tested on: Bacteroides corrodens; test: Susceptibility of Anaerobic Bacteroides Isolates by the Agar-Dilution Method (Table III); conditions: Eikenella corrodens; strain 1874; readings 24 hrs. after incubation
# Excerpt: as §1
# (§3) Susceptibility of Anaerobic Bacteroides Isolates by the
# (§4) Agar-Dilution Method MIC (μg/ml) readings 24 hrs. after incubation
# [8] = tested on: Bacteroides thetaiotaomicron; test: as above; conditions: 24 h
# Excerpt: as §1, §3, §4
# [9] = tested on: Bacteroides fragilis; test: as above; conditions: 24 h
# Excerpt: as §1, §3, §4
# [10] = tested on: Klebsiella; test: Agar Dilution MIC (Table I); conditions: Klebsiella, read-out: Agar Dilution MIC
# [11] = tested on: H. influ.; test: Agar Dilution MIC (Table I); conditions: read-out: Agar Dilution MIC
# [12] = tested on: Staph. epi; test: Expanded Spectrum MIC (Table II)
# Excerpt: as §1, §2
# [13] = tested on: Staph. epi; test: Agar Dilution MIC (Table I); conditions: read-out: Agar Dilution MIC
# [14] = tested on: Staph. aureus; test: Agar Dilution MIC (Table I); conditions: Staphylococcus aureus
# [15] = strain V41, read-out: Agar Dilution MIC
# [16] = strain X1.1, read-out: Agar Dilution MIC
# [17] = strain X400, read-out: Agar Dilution MIC
compound,measurement,setting,value
"CC1=C(C(=O)O)N2C(=O)C(NC(=O)[C@H](N)c3csc4cccc(F)c34)C2SC1 (stereo partly drawn) [Ex. 19, D-7-(4-Fluoro-3-benzothienyl)glycylamido-3-methyl-3-cephem-4-carboxylic acid]",MIC,[1]; strain 2041,128 µg/mL
same,MIC,[1]; strain X66,128 µg/mL
same,MIC,[2]; strain S224,4 µg/mL
same,MIC,[2]; strain S225,4 µg/mL
same,MIC,[2]; strain S226,4 µg/mL
same,MIC,[2]; strain S227,4 µg/mL
same,MIC,[2]; strain S228,4 µg/mL
same,MIC,[2]; strain S229,8 µg/mL
same,MIC,[2]; strain S230,4 µg/mL
same,MIC,[2]; strain S231,2 µg/mL
same,MIC,[2]; strain S234,4 µg/mL
same,MIC,[2]; strain S237,4 µg/mL
same,MIC,[2]; strain S238,8 µg/mL
same,MIC,[2]; strain S239,8 µg/mL
same,MIC,[3]; strain 76,4 µg/mL
same,MIC,[3]; strain 105,4 µg/mL
same,MIC,[3]; strain 158,4 µg/mL
same,MIC,[3]; strain 164,4 µg/mL
same,MIC,[3]; strain 169,4 µg/mL
same,MIC,[3]; strain 171,4 µg/mL
same,MIC,[3]; strain 312,8 µg/mL
same,MIC,[3]; strain 1683,2 µg/mL
same,MIC,[3]; strain 1930,16 µg/mL
same,MIC,[3]; strain 4842,8 µg/mL
same,MIC,[3]; strain C.L.,16 µg/mL
same,MIC,[3]; strain HESS,16 µg/mL
same,MIC,[3]; strain M366,64 µg/mL
same,MIC,[3]; strain M370,4 µg/mL
same,MIC,[3]; strain M371,4 µg/mL
same,MIC,[3]; strain R465,64 µg/mL
same,MIC,[3]; strain STEL,64 µg/mL
same,MIC,[4]; strain EC14,128 µg/mL
same,MIC,[4]; strain N10,128 µg/mL
same,MIC,[4]; strain TEM,128 µg/mL
same,MIC,[5],4 µg/mL
same,MIC,[6],1 µg/mL
same,MIC,[7],32 µg/mL
same,MIC,"[8]; strain 1438, readings 24 hrs. after incubation",16 µg/mL
same,MIC,"[8]; strain 1900A, readings 24 hrs. after incubation",32 µg/mL
same,MIC,"[9]; strain 9, readings 24 hrs. after incubation",8 µg/mL
same,MIC,"[9]; strain 103, readings 24 hrs. after incubation",32 µg/mL
same,MIC,"[9]; strain 104, readings 24 hrs. after incubation",16 µg/mL
same,MIC,"[9]; strain 106, readings 24 hrs. after incubation",8 µg/mL
same,MIC,"[9]; strain 107, readings 24 hrs. after incubation",8 µg/mL
same,MIC,"[9]; strain 108, readings 24 hrs. after incubation",16 µg/mL
same,MIC,"[9]; strain 110, readings 24 hrs. after incubation",8 µg/mL
same,MIC,"[9]; strain 111, readings 24 hrs. after incubation",64 µg/mL
same,MIC,"[9]; strain 1877, readings 24 hrs. after incubation",8 µg/mL
same,MIC,[10]; strain KAE,128 µg/mL
same,MIC,[10]; strain X26,16 µg/mL
same,MIC,[10]; strain X68,128 µg/mL
same,MIC,[11]; strain 76,4 µg/mL
same,MIC,[11]; strain C.L.,16 µg/mL
CON=C(C(=O)NC1C(=O)N2C(C(=O)O)=C(C)CSC12)c1csc2cc(OC)ccc12 (stereo not drawn) [Ex. 22],MIC,[1]; strain 2041,64 µg/mL
same,MIC,[1]; strain X66,64 µg/mL
same,MIC,[2]; strain S224,2 µg/mL
same,MIC,[2]; strain S225,2 µg/mL
same,MIC,[2]; strain S226,2 µg/mL
same,MIC,[2]; strain S227,2 µg/mL
same,MIC,[2]; strain S228,2 µg/mL
same,MIC,[2]; strain S229,4 µg/mL
same,MIC,[2]; strain S230,2 µg/mL
same,MIC,[2]; strain S231,1 µg/mL
same,MIC,[2]; strain S234,2 µg/mL
same,MIC,[2]; strain S237,2 µg/mL
same,MIC,[2]; strain S238,4 µg/mL
same,MIC,[2]; strain S239,2 µg/mL
same,MIC,[12]; strain 219,2 µg/mL
same,MIC,[12]; strain 269,4 µg/mL
same,MIC,[12]; strain 270,8 µg/mL
same,MIC,[12]; strain 285,4 µg/mL
same,MIC,[12]; strain 286,1 µg/mL
same,MIC,[12]; strain EPI1,16 µg/mL
same,MIC,[3]; strain 76,1 µg/mL
same,MIC,[3]; strain 105,2 µg/mL
same,MIC,[3]; strain 158,1 µg/mL
same,MIC,[3]; strain 164,1 µg/mL
same,MIC,[3]; strain 169,2 µg/mL
same,MIC,[3]; strain 171,2 µg/mL
same,MIC,[3]; strain 312,1 µg/mL
same,MIC,[3]; strain 1683,0.5 µg/mL
same,MIC,[3]; strain 1930,1 µg/mL
same,MIC,[3]; strain 4842,1 µg/mL
same,MIC,[3]; strain C.L.,4 µg/mL
same,MIC,[3]; strain HESS,4 µg/mL
same,MIC,[3]; strain M366,64 µg/mL
same,MIC,[3]; strain M370,1 µg/mL
same,MIC,[3]; strain M371,2 µg/mL
same,MIC,[3]; strain R465,2 µg/mL
same,MIC,[3]; strain STEL,64 µg/mL
same,MIC,[4]; strain EC14,64 µg/mL
same,MIC,[4]; strain N10,128 µg/mL
same,MIC,[4]; strain TEM,128 µg/mL
same,MIC,[5],0.5 µg/mL
same,MIC,[6],0.5 µg/mL
same,MIC,[13]; strain 222,4 µg/mL
same,MIC,[13]; strain EPI1,8 µg/mL
same,MIC,[10]; strain KAE,128 µg/mL
same,MIC,[10]; strain X26,1 µg/mL
same,MIC,[10]; strain X68,128 µg/mL
same,MIC,[11]; strain 76,2 µg/mL
same,MIC,[11]; strain C.L.,8 µg/mL
same,MIC,[14]; [15],8 µg/mL
same,MIC,[14]; [16],1 µg/mL
same,MIC,[14]; [17],64 µg/mL
"CC1=C(C(=O)O)N2C(=O)C(NC(=O)[C@@H](N)c3csc4cc(Cl)ccc34)C2SC1 (stereo partly drawn) [Ex. 37A, L-7-(6-Chloro-3-benzothienyl)glycylamido-3-methyl-3-cephem-4-carboxylic acid]",MIC,[1]; strain 2041,128 µg/mL
same,MIC,[1]; strain X66,128 µg/mL
same,MIC,[4]; strain EC14,128 µg/mL
same,MIC,[4]; strain N10,128 µg/mL
same,MIC,[4]; strain TEM,128 µg/mL
same,MIC,[5],16 µg/mL
same,MIC,[6],4 µg/mL
same,MIC,[13]; strain 222,32 µg/mL
same,MIC,[13]; strain EPI1,64 µg/mL
same,MIC,[10]; strain KAE,128 µg/mL
same,MIC,[10]; strain X26,64 µg/mL
same,MIC,[10]; strain X68,128 µg/mL
same,MIC,[11]; strain 76,2 µg/mL
same,MIC,[11]; strain C.L.,128 µg/mL
same,MIC,"[14]; read-out: Agar Dilution MIC, strain S13E",64 µg/mL
same,MIC,[14]; [15],64 µg/mL
same,MIC,[14]; [16],16 µg/mL
same,MIC,[14]; [17],128 µg/mL
